Test results reported in PMC5460445, “Pharmacokinetic Comparison of 20(R)- and 20(S)-Ginsenoside Rh1 and 20(R)- and 20(S)-Ginsenoside Rg3 in Rat Plasma following Oral Administration of Radix Ginseng Rubra and Sheng-Mai-San Extracts” (Evidence-based Complementary and Alternative Medicine : eCAM, 2017).

Assay: Pharmacokinetic study in rats after oral administration of Radix Ginseng Rubra or SMS extracts (LC-MS of plasma)
Format: in vivo, Male Sprague-Dawley rats
Parameters: AUC(0–t) / AUC(0–∞): unit not given here
Settings: for T max / AUC(0–t) / AUC(0–∞) / C max / t 1/2: rat plasma; for AUC(0–t) / AUC(0–∞) / C max / t 1/2: mean ± SD
From the text: A Shimadzu 2020 LC-MS system, with an electrospray ionization interface (ESI) source and Shimadzu LCMS LabSolution Workstation software for data processing, was utilized to perform the analytical procedures. The system includes two Shimadzu LC-20AD pumps, a Shimadzu SIL-20A autosampler, a Shimadzu CTO-20A column oven, a CBM-20A system controller, and a Shimadzu DGU-20A3 online degasser. A Q-array-octapole-quadrupole mass analyzer was used as the detector.
The chromatographic separation was carried on a Diamonsil C18 column (150 mm × 4.6 mm id, 5 μm; Dikma, China) with the mobile phase containing 0.5 mmol/L ammonium chloride in double-distilled water (A) and acetonitrile (B) at a flow rate of 1.0 mL/min. A diverter valve was used to direct 0.3 mL/min HPLC elute to MS detector and 0.7 mL/min elute to a waste container. A gradient elution program was used as follows: 0.01→6.0 min, 38% B; 6.0→6.5 min, 38→50% B; 6.5→15.0 min, 50% B; 15.0→15.5 min, 50→38% B. The column temperature was kept constant at 40°C.
The negative-ion electrospray ionization mode was utilized under the following source conditions: curved desolvation line (CDL) temperature, 250°C; block temperature, 400°C; interface temperature, 350°C; nebulizing gas flow rate, 1.5 L/min; drying gas flow rate, 10 L/min. CDL voltage, 0 V; Q-array DC (direct current) voltage, 0 V; interface voltage and RF ([…] frequency) voltage were fixed as those in tuning. The chlorinated adducts of molecular ions [M + Cl]^− of 20(R)-ginsenoside Rh1 and 20(S)-ginsenoside Rh1 at m/z 673.45, 20(R)-ginsenoside Rg3 and 20(S)-ginsenoside Rg3 at m/z 819.60, and digoxin (IS) at m/z 815.60 were monitored in selected ion monitoring (SIM) mode.
Radix Ginseng Rubra and Radix Ophiopogonis were cut into slices and Fructus Schisandrae was scrunched into powder before use. Three drugs were mixed in the ratio of 1 : 3 : 1.5 and the total weight was 110 g. The mixture was extracted with water for three times (1 : 10, 1 : 8, and 1 : 6, w/v) at 100°C, 1 h for each time. The SMS extract was obtained and condensed to 0.55 g/mL crude drug. 20 g Radix Ginseng Rubra was treated as above and the extract was condensed to 0.1 g/mL crude drug. SMS and Radix Ginseng Rubra concentrated solution was subjected to D101 macroporous resin and eluted with water followed by 95% ethanol. The 95% ethanol eluate was further concentrated to 5.5 g/mL crude drug for SMS and 1.0 g/mL crude drug for Radix Ginseng Rubra before use.
An aliquot of 300 μL plasma sample was transferred into a centrifuge tube together with 10 μL of IS solution. After vortex-mixing for 30 s, the analytes and IS were extracted from plasma with n-butanol for three times (1 : 3, 1 : 2, and 1 : 2, v/v). Then the organic layer was transferred into another centrifuge tube and evaporated to dryness at 37°C. Finally, the residue was reconstituted in 20 μL methanol and centrifuged at 12,000 ×g for 10 min; 10 μL aliquot was injected into chromatographic system for analysis.
Male Sprague-Dawley rats, 193–215 g in weight, were supplied by Shanghai Slater Experimental Animal Feeding Center (Shanghai, China). The rats were kept in an air-conditioned animal quarter at a temperature of 22 ± 2°C and a relative humidity of 50 ± 10%. The animals were acclimatized to the facilities for four days and then fasted with free access to water for 12 h prior to experiment. Animal experiments were carried out in accordance with the Regulations of Experimental Animal Administration issued by the Ministry of Science and Technology of China. All animal protocols were approved by the Ethics Committee on the Care and Use of Laboratory Animals of China pharmaceutical University.
Rats were divided randomly into two groups (5 rats in each time point per group) and given an oral dose of 1.35 mL/100 g Radix Ginseng Rubra and SMS extracts, respectively, which was derived from the dose in clinical practice with correction. […]

[1] = oral Radix Ginseng Rubra extract 1.35 mL/100 g

Q: Which results are given for `CC(C)=CCCC(C)(O)C1CCC2C1C(O)CC1C2(C)CC(OC2OC(CO)C(O)C(O)C2O)C2C(C)(C)C(O)CCC21C` [20(S)-Rh1, 20(S)-ginsenoside Rh1]?
A: AUCC (oral Radix Ginseng Rubra extract 1.35 mL/100 g, dose-corrected AUC0–∞): 159.20 ± 26.03; T max [1]: 0.50 h; AUC(0–t) [1]: 157.53 ± 25.46; AUC(0–∞) [1]: 159.27 ± 26.03; C max [1]: 152.49 ± 30.98 ng/mL; t 1/2 [1]: 2.85 ± 0.69 h; T max (oral SMS extract 1.35 mL/100 g): 1.50 h; AUC(0–t) (oral SMS extract 1.35 mL/100 g): 409.48 ± 62.23; AUC(0–∞) (oral SMS extract 1.35 mL/100 g): 419.75 ± 65.31; C max (oral SMS extract 1.35 mL/100 g): 195.34 ± 44.91 ng/mL; t 1/2 (oral SMS extract 1.35 mL/100 g): 4.21 ± 1.05^∗ h
